Values quoted from earlier work, collected in US20160303177A1, “NUTRITIONAL SUPPLEMENT” (priority 2015, published 2016).

Assays:
[1] = 400 mg at three times per day
[2] = 600 mg prior to exercise
[3] = training in set of 8-15 repetitions
[4] = washout period
[5] = 300 mg per day
[6] = 17.25 grams per day, cyclists
[7] = 5 grams at three times a day along with other medications
[8] = given before animals were cardiac stressed
[9] = 300 mgs of EGCG
[10] = two grams of L-Carnitine with 80 mg of carbohydrates
[11] = 8 grams of L-Citrulline with 10 grams of carbohydrate
[12] = 1500 mg per day for 6 weeks, mild to moderate erectile dysfunction
[13] = diseased hearts, 3 grams a day
[14] = 6 grams
[15] = healthy individuals
[16] = 500 milligrams of nitrate, runners
[17] = 11.2 mmol/kg of nitrate

For `C[N+](C)(C)CCOP(=O)([O-])OC[C@H](O)CO` [Alpha GPC, Alpha Glycerylphosphorylcholine], the “cognition in mild to moderate Alzheimer's dementia” value [1] is given as “cognitive improvement” and the “peak increase in peak force production during resistance exercise” value [2] is given as 14%.
In the case of `NCCC(=O)O` [Beta-Alanine], the “additional reps in the gym” value [3] is given as “one to two additional reps” and the “time after supplementation still in the muscles at higher levels” value [4] is given as 8 weeks.
For `COC1=C(OC)C(=O)C(C/C=C(\C)CC/C=C(\C)CC/C=C(\C)CC/C=C(\C)CC/C=C(\C)CC/C=C(\C)CC/C=C(\C)CC/C=C(\C)CC/C=C(\C)CCC=C(C)C)=C(C)C1=O` [CoQ 10, Coenzyme Q10], the fatigue during exertion [5] is given as “reduce fatigue during the late portions of exertion”, the half-life (in vivo) is given as 5.8 to 8.10 h and the “increase in CoQ10 concentrations” value (supplementation with 90-120 mg) is given as 50-150%.
In the case of `O=C[C@H](O)[C@H](O)[C@H](O)CO` [D-Ribose], the “rates of ATP production” value [6] is listed as “increased the rates of ATP production back to pre-exercise levels”, the fibromyalgia symptoms [7] is listed as “marked decrease in symptoms” and the “held out longer before ischemia compared to placebo” value [8] is listed as 25%.
For `O=C(O[C@@H]1Cc2c(O)cc(O)cc2O[C@@H]1c1cc(O)c(O)c(O)c1)c1cc(O)c(O)c(O)c1` [EGCG, epigallocatechin gallate], the “source of energy when taken with a meal” value [9] is given as “a greater proportion of energy comes from dietary fat rather than carbohydrate”.
For `C[N+](C)(C)C[C@H](O)CC(=O)[O-]` [L-Carnitine], the fat burning [10] is listed as “increased fat burning” and the “increase in muscle carnitine content” value [10] is listed as 21%.
In the case of `NC(=O)NCCC[C@H](N)C(=O)O` [L-Citrulline], the delay in fatigue [11] is listed as “statistically significant delay in fatigue”, the “men with increase in erection hardness” value [12] is listed as 50% and the blood pressure [13] is listed as “decrease in blood pressure”. For the same compound, the exercise abilities [13] was “increase in exercise abilities”, the “right ventricular ejection fraction” value [13] was “increase in right ventricular ejection fraction” and the ATP production [14] was “increased ATP production”. The ammonia production [14] was “reduced ammonia production”, the muscle protein synthesis [14] was “increased muscle protein synthesis” and the “reduction of creatine depletion” value [14] was 28%.
In the case of `O=[N+]([O-])O` [nitrate], the “reduced VO2 (oxygen consumption)” value ([15]; 0.1 mmol/kg of nitrate) is given as 5.4%, the “increase in time to fatigue” value ([15]; 6.2 mmol/kg of nitrate) is given as 15% and the “increase in energy efficiency” value [15] is given as 7.1%. The “improvement of 5K time” value [16] was 41 s and the “reduction of oxygen muscle extraction” value [17] was 19%.
